pEC50: −log10 of the molar value. Where a name gives a salt, the structure may show the parent alone. Read-outs that look alike come from different tables or passages of the source.
What was measured:
[1] = system: P. berghei-luciferase sporozoites; experiment: microbe, parasite or virus in culture; type: cell-based, Plasmodium berghei; settings: Plasmodium berghei, liver-stage parasites
[2] = Mammalian cell cytotoxicity assay, HepG2 (CellTiter-Glo, 72 h); settings: human, HepG2 cells
[3] = Mammalian cell cytotoxicity assay, HEK293T (CellTiter-Glo, 72 h); settings: human, HEK293T cells
[4] = system: P. falciparum Dd2-HLH; experiment: microbe, parasite or virus in culture; type: cell-based, Plasmodium falciparum; settings: Plasmodium falciparum, read-out: Blood stage 72h EC50
[5] = system: P. falciparum Dd2-HLH; experiment: microbe, parasite or virus in culture; type: cell-based, Plasmodium falciparum; settings: Plasmodium falciparum
[6] = HepG2, 48 hours in culture, read-out: Liver stage 48h EC50
[7] = DD2, 48 h, read-out: Blood stage 48h EC50
[8] = 48 h in culture, read-out: Liver 48 h EC50
[9] = DD2, Hec50, 48 h, read-out: Blood stage 48 h EC50
[10] = DD2, read-out: EC50 (antiplasmodial, quoted in discussion from Supplementary Table 1)
[11] = DD2, P. falciparum blood-stage parasites, 48 hours in culture, read-out: Blood stage 48h EC50
[12] = DD2, P. falciparum blood-stage parasites, 72 hours in culture

| Structure (SMILES) | pEC50 [1, 6] | CC50 at 72 h [2] [nM] | CC50 at 72 h [3] [nM] | pEC50 ([4]; DD2, 72 h) | pEC50 [5, 7] | pEC50 [1, 8] | pEC50 [5, 9] | pEC50 [5, 10] | pEC50 [5, 11] | pEC50 ([5]; DD2, stage and incubation time not given, read-out: EC50 (antiplasmodial, quoted in discussion from Supplementary Table 1)) | pEC50 [4, 12] |
| --- | --- | --- | --- | --- | --- | --- | --- | --- | --- | --- | --- |
| CCN(CC)CC[n+]1ccc2c(C)c3[nH]c4ccc(O)cc4c3c(C)c2c1 [Datelliptium Chloride] | < 5.00 | 505 | 4690 | 6.71 | – | – | – | – | – | – | – |
| CCCCCC(=O)O[C@]1(C(C)=O)CC[C@H]2[C@@H]3CCC4=CC(=O)CC[C@]4(C)[C@H]3CC[C@@]21C [Hydroxyprogesterone caproate] | 5.77 | 863 | > 9950 | 6.13 | 6.26 | – | – | – | – | – | – |
| CC(=O)Nc1cccc(-n2c(=O)n(C3CC3)c(=O)c3c(Nc4ccc(I)cc4F)n(C)c(=O)c(C)c32)c1 [Trametinib dimethyl sulfoxide] | – | 119 | > 9950 | 6.52 | 6.80 | – | – | – | – | – | – |
| CO[C@H]1C(=O)[C@]2(C)[C@@H](OC)C[C@H]3OC[C@@]3(OC(C)=O)[C@H]2[C@H](OC(=O)c2ccccc2)[C@]2(O)C[C@H](OC(=O)[C@H](O)[C@@H](NC(=O)OC(C)(C)C)c3ccccc3)C(C)=C1C2(C)C [Cabazitaxel, reference compound] | – | 784 | > 9950 | 8.10 | – | 7.37 | 8.22 | – | – | – | – |
| CC(=O)O[C@@]12CO[C@@H]1C[C@H](O)[C@@]1(C)C(=O)[C@H](O)C3=C(C)[C@@H](OC(=O)[C@H](O)[C@@H](NC(=O)OC(C)(C)C)c4ccccc4)C[C@@](O)([C@@H](OC(=O)c4ccccc4)[C@H]21)C3(C)C [Docetaxel] | 6.40 | 24 | > 9950 | 7.96 | 7.96 | – | – | – | – | – | – |
| C/C(=C\c1csc(C)n1)[C@@H]1C[C@@H]2O[C@]2(C)CCC[C@H](C)[C@H](O)[C@@H](C)C(=O)C(C)(C)[C@@H](O)CC(=O)N1 [Ixabepilone] | 6.06 | 7 | 15 | – | 7.38 | – | – | – | – | – | – |
| CN(C)Cc1ccc(S(=O)(=O)n2ccc(/C=C/C(=O)NO)c2)cc1 [resminostat, reference compound] | 5.15 | 1200 | 3550 | 6.16 | – | – | – | 6.37 | – | – | – |
| c1cc(-c2nc3ccc(-c4ccc5nc(-c6ccncc6)[nH]c5c4)cc3[nH]2)ccn1 [Ridinilazole] | 6.67 | 3110 | > 9950 | 7.05 | – | – | – | – | – | – | – |
| COc1cc(N2CCC(N3CCN(C)CC3)CC2)ccc1Nc1ncc(Cl)c(Nc2ccccc2P(C)(C)=O)n1 [Brigatinib] | 5.48 | 136 | 1390 | 6.46 | 7.00 | – | – | – | – | – | – |
| COc1cccc2c1C(=O)c1c(O)c3c(c(O)c1C2=O)C[C@@](O)(C(=O)CO)C[C@@H]3O[C@H]1C[C@H](N)[C@H](O)[C@H](C)O1 [Doxorubicin] | 5.76 | 44 | 74 | 6.60 | 7.19 | – | – | – | – | – | – |
| CCCCN(CCCC)CCC(O)c1cc2c(Cl)cc(Cl)cc2c2cc(C(F)(F)F)ccc12 (stereo not drawn) [Halofantrine HCl] | 5.73 | > 9950 | > 9950 | 9.00 | – | – | – | – | – | – | – |
| CC[C@]1(O)C[C@@H]2CN(CCc3c([nH]c4ccccc34)[C@@](C(=O)OC)(c3cc4c(cc3OC)N(C)[C@H]3[C@@](O)(C(N)=O)[C@H](O)[C@]5(CC)C=CCN6CC[C@]43[C@@H]65)C2)C1 [Vindesine] | 6.08 | > 9990 | > 9950 | 7.70 | 7.85 | – | – | – | – | – | – |
| COC1=C(C)C(=O)C2=C(C1=O)[C@@H](COC(N)=O)[C@@]1(OC)[C@H]3N[C@H]3CN21 [mitomycin A, reference compound] | 5.87 | 32 | 362 | – | – | – | – | – | 7.42 | 7.42 | 7.74 |
| Cc1cc(N)c2cc(NC(=O)Nc3ccc4nc(C)cc(N)c4c3)ccc2n1 [Aminoquinuride] | 5.46 | > 9990 | > 9950 | 6.35 | 7.10 | – | – | – | – | – | – |
| COCCNCc1ccc(-c2cc3nccc(Oc4ccc(NC(=O)C5(C(=O)Nc6ccc(F)cc6)CC5)cc4F)c3s2)nc1 [MG-516] | 5.66 | 1460 | 2250 | 6.17 | 6.84 | – | – | – | – | – | – |
| CN(C)Cc1c(C(=O)NCCOc2ccc(C(=O)NO)cc2)oc2ccccc12 [Abexinostat] | 5.92 | – | 376 | 7.04 | 7.29 | – | – | – | – | – | – |
| O=C(NC1CCN(CCCCC2(C(=O)NCC(F)(F)F)c3ccccc3-c3ccccc32)CC1)c1ccccc1-c1ccc(C(F)(F)F)cc1 [Lomitapide] | 5.65 | – | 791 | 6.09 | 6.56 | – | – | – | – | – | – |
| COCCn1c2c([n+](Cc3cnccn3)c1C)C(=O)c1ccccc1C2=O [Sepantronium bromide] | 8.00 | – | 56 | 7.09 | 7.68 | – | – | – | – | – | – |
| Cc1cc(Nc2nc(C(O)c3ccc(F)cc3)nc3ccccc23)n[nH]1 (stereo not drawn) [AC-430] | 5.38 | – | > 9950 | 6.03 | 5.92 | – | – | – | – | – | – |

| Structure (SMILES) | pEC50 [1, 6] | CC50 at 72 h [2] [nM] | CC50 at 72 h [3] [nM] | pEC50 ([4]; DD2, 72 h) | pEC50 [5, 7] | pEC50 [1, 8] | pEC50 [5, 9] | pEC50 [5, 10] | pEC50 [5, 11] | pEC50 ([5]; DD2, stage and incubation time not given, read-out: EC50 (antiplasmodial, quoted in discussion from Supplementary Table 1)) | pEC50 [4, 12] |
| --- | --- | --- | --- | --- | --- | --- | --- | --- | --- | --- | --- |
| CN1CCC(CNc2ccc3ncc(-c4cccc(OC(F)(F)F)c4)n3n2)CC1 [SGI-1776] | 5.75 | 1040 | 4580 | 6.21 | 6.32 | – | – | – | – | – | – |
| C#Cc1cccc(Nc2ncnc3cc(OC)c(OCCCCCCC(=O)NO)cc23)c1 [CUDC-101] | 6.46 | – | 408 | 7.28 | 7.39 | – | – | – | – | – | – |
| COC(=O)[C@]12CCC(C)(C)C[C@H]1[C@H]1C(=O)C=C3[C@@]4(C)C=C(C#N)C(=O)C(C)(C)[C@@H]4CC[C@@]3(C)[C@]1(C)CC2 [Bardoxolone methyl] | 6.81 | 557 | 208 | 6.12 | 6.47 | – | – | – | – | – | – |
| C[C@]12O[C@H](C[C@]1(O)CO)n1c3ccccc3c3c4c(c5c6ccccc6n2c5c31)CNC4=O [Lestaurtinib] | 5.99 | 29 | 551 | – | – | – | – | – | 7.06 | – | 6.59 |
| CC(C)C(=O)OCC(=O)[C@@]12O[C@H](C3CCCCC3)O[C@@H]1C[C@H]1[C@@H]3CCC4=CC(=O)C=C[C@]4(C)[C@H]3[C@@H](O)C[C@@]12C [Ciclesonide] | 5.48 | > 9950 | – | 6.18 | 6.70 | – | – | – | – | – | – |
| CN(NC(=O)CC(=O)NN(C)C(=S)c1ccccc1)C(=S)c1ccccc1 [Elesclomol] | < 5.00 | – | 169 | 6.36 | 6.71 | – | – | – | – | – | – |
| Cn1cc(CNCC2CCN(c3ncc(C(=O)NO)cn3)CC2)c2ccccc21 [Quisinostat, reference compound] | – | – | 33 | 8.52 | – | 8.10 | 9.00 | – | – | – | – |
| COc1cccc2c1C(=O)c1c(O)c3c(c(O)c1C2=O)C[C@@](O)(C(=O)CO)C[C@@H]3O[C@H]1C[C@H](N)[C@@H](O)[C@H](C)O1 [Epirubicin HCl] | 5.83 | – | 103 | 6.44 | 6.57 | – | – | – | – | – | – |
| CC(C)C[C@H](NC(=O)[C@H](Cc1ccccc1)NC(=O)c1cnccn1)B(O)O [Bortezomib] | 7.92 | – | 25 | 7.09 | 7.04 | – | – | – | – | – | – |
| OC(CCN1CCCC1)(c1ccccc1)C1CCCCC1 (stereo not drawn) [Procyclidine hydrochloride] | < 5.00 | – | > 9950 | 6.36 | 6.23 | – | – | – | – | – | – |
| N[C@H](C(=O)O)[C@@H]1CC(Cl)=NO1 [Acivicin] | 5.96 | 1700 | 7730 | 6.26 | 6.68 | – | – | – | – | – | – |
| CN(c1ccc(Cl)cc1)c1cc[n+](Cc2ccc(-c3ccc(C[n+]4ccc(N(C)c5ccc(Cl)cc5)c5ccccc54)cc3)cc2)c2ccccc12 [TCD-717] | 6.99 | 4770 | 1930 | 6.15 | 7.20 | – | – | – | – | – | – |
| CCOc1cc2ncc(C#N)c(Nc3ccc(OCc4cccc(F)c4)c(Cl)c3)c2cc1NC(=O)/C=C/CN(C)C [HKI-357] | 6.24 | – | 1720 | 6.21 | 6.67 | – | – | – | – | – | – |
| CN(C)CCCN1c2ccccc2CCc2ccccc21 [Imipramine hydrochloride] | < 5.00 | > 9950 | > 9950 | 6.02 | 6.74 | – | – | – | – | – | – |
| CS(=O)(=O)CCNCc1ccc(-c2ccc3ncnc(Nc4ccc(OCc5cccc(F)c5)c(Cl)c4)c3c2)o1 [Lapatinib] | 5.38 | – | > 9950 | 6.28 | 6.52 | – | – | – | – | – | – |
| CNC(=O)[C@H](Cc1ccccc1)NC(=O)[C@H](CC(C)C)[C@H](CSc1cccs1)C(=O)NO [Batimastat] | < 5.00 | – | > 9950 | 6.78 | 7.02 | – | – | – | – | – | – |
| COc1ncc(-c2ccc3nccc(-c4ccnnc4)c3c2)cc1NS(=O)(=O)c1ccc(F)cc1F [omipalisib, reference compound] | 6.64 | – | 46 | 6.80 | – | – | – | 6.80 | – | – | – |
| CCOC(=O)[C@H]1O[C@@H]1C(=O)N[C@@H](CC(C)C)C(=O)NCCC(C)C [aloxistatin, reference compound] | < 5.00 | – | > 9950 | 7.16 | – | – | – | 7.51 | – | – | – |

— PMC11145868, “Protein target similarity is positive predictor of in vitro antipathogenic activity: a drug repurposing strategy for Plasmodium falciparum” (Journal of Cheminformatics, 2024)
